Reference: the supplement of paper PMC6045584

Columns and labels:
Assay in all cases: area under dose-response curve of surviving fraction (unscaled, Aref=0) (surviving fraction x log10(nM)); higher = more resistant
Conditions in all cases: exposure time: 5 days; dose range 0.5-1000 nM
[1] = compound: C#Cc1cccc(Nc2ncnc3cc(OCCOC)c(OCCOC)cc23)c1 [ERLOTINIB]
How it was run: (§1)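 Three screens per tumour cell line were run in 384-well plates at eight inhibitor concentrations from 0.5 to 1000 nM over five days. Surviving fractions, from CellTiter-Glo luminescence normalised to DMSO-only wells, were fitted with 3-parameter logistic curves in the drc R package. The reported area under the curve is the unscaled activity area. It spans log10 dose, and Aref is 0.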

[2] = compound: CCC1=C[C@@H]2CN(C1)Cc1c([nH]c3ccccc13)[C@@](C(=O)OC)(c1cc3c(cc1OC)N(C)[C@H]1[C@@](O)(C(=O)OC)[C@H](OC(C)=O)[C@]4(CC)C=CCN5CC[C@]31[C@@H]54)C2 [VINORELBINE]
How it was run: as §1

[3] = compound: CCCS(=O)(=O)Nc1ccc(F)c(C(=O)c2c[nH]c3ncc(Cl)cc23)c1F [PLX-4720]
How it was run: as §1

[4] = compound: CCN(CC)CCNC(=O)c1c(C)[nH]c(/C=C2\C(=O)Nc3ccc(F)cc32)c1C [SUNITINIB]
How it was run: as §1

[5] = compound: CN(Cc1cnc2nc(N)nc(N)c2n1)c1ccc(C(=O)N[C@@H](CCC(=O)O)C(=O)O)cc1 [METHOTREXATE]
How it was run: as §1

[6] = compound: CO[C@H]1C[C@@H]2CC[C@@H](C)[C@@](O)(O2)C(=O)C(=O)N2CCCC[C@H]2C(=O)O[C@H]([C@H](C)C[C@@H]2CC[C@@H](OCCO)[C@H](OC)C2)CC(=O)[C@H](C)/C=C(\C)[C@@H](O)[C@@H](OC)C(=O)[C@H](C)C[C@H](C)/C=C/C=C/C=C/1C [EVEROLIMUS]
How it was run: as §1

[7] = compound: COc1cc(CCc2cc(NC(=O)c3ccc(N4CC(C)NC(C)C4)cc3)n[nH]2)cc(OC)c1 [AZD4547]
How it was run: as §1

[8] = compound: COc1cc([C@@H]2c3cc4c(cc3[C@@H](O[C@@H]3O[C@@H]5CO[C@@H](C)O[C@H]5[C@H](O)[C@H]3O)[C@H]3COC(=O)[C@H]23)OCO4)cc(OC)c1O [ETOPOSIDE]
How it was run: as §1

[9] = compound: Cc1nc(Nc2n[nH]c3c2CN(C(=O)N[C@H](CN(C)C)c2ccccc2)C3(C)C)c2sccc2n1
How it was run: as §1

[10] = compound: NC1(c2ccc(-c3nc4ccn5c(=O)[nH]nc5c4cc3-c3ccccc3)cc2)CCC1 [MK2206]
How it was run: as §1

[11] = compound: O=C(NOCC1CC1)c1ccc(F)c(F)c1Nc1ccc(I)cc1Cl
How it was run: as §1

[12] = compound: O=C(O)CC[C@H]1CC[C@@](c2cc(F)ccc2F)(S(=O)(=O)c2ccc(Cl)cc2)CC1 [MK0752]
How it was run: as §1

[13] = compound: Nc1ccn([C@@H]2O[C@H](CO)[C@@H](O)C2(F)F)c(=O)n1 [GEMCITABINE]
How it was run: as §1

Row | Test System | area under dose-response curve [1] | area under dose-response curve [2] | area under dose-response curve [3] | area under dose-response curve [4] | area under dose-response curve [5] | area under dose-response curve [6] | area under dose-response curve [7] | area under dose-response curve [8] | area under dose-response curve [9] | area under dose-response curve [10] | area under dose-response curve [11] | area under dose-response curve [12] | area under dose-response curve [13]
1 | 22RV1 PROSTATE | 3.31 | 1.53 | 3.09 | 3.06 | 2.21 | 1.48 | 3.43 | 2.73 | 1.33 | 2.65 | 2.6 | 3.57 | 
2 | CADOES1 SOFT TISSUE | 2.74 | 2.63 | 3.09 | 3.22 | 1.82 | 1.49 | 3.23 | 3 | 2.56 | 2.82 | 2.87 | 3.14 | 1.18
3 | CAL51 BREAST | 3.36 | 1.28 | 3.19 | 2.99 | 1.91 | 1.23 | 2.67 | 2.79 | 0.818 | 3.16 | 3.12 | 3.32 | 0.99
4 | CAL120 BREAST | 3.02 | 1.59 | 2.96 | 2.74 | 1.67 | 1.62 | 2.59 | 2.9 | 1.08 | 3.14 | 2.97 | 3.37 | 
5 | CASKI CERVIX | 2.27 | 1.27 | 3 | 2.3 | 2.23 |  | 3.17 | 2.72 | 0.674 | 2.5 | 2.58 | 3.28 | 1.01
6 | CHLA90 AUTONOMIC GANGLIA | 3.07 | 1.69 | 2.66 | 2.21 | 3.53 | 1.36 | 2.77 | 2.94 | 1.57 | 3.16 | 2.38 | 3.36 | 1.39
7 | COLO320DM LARGE INTESTINE | 3.34 | 3.2 | 3.03 | 2.59 | 1.92 | 2.62 | 3.59 | 3.54 | 2.68 | 3.11 | 3.26 | 3.87 | 1.53
8 | DU4475 BREAST | 3.44 | 1.96 | 1.92 | 2.1 | 3.28 | 0.518 | 3.5 | 1.65 | 0.457 | 2.76 | 1.65 | 3.26 | 1.48
9 | H23 LUNG | 2.52 | 1.74 | 3.19 | 2.86 | 1.75 | 1.76 | 3.37 | 3.08 | 1.47 | 3.04 | 2.08 | 3.65 | 1.22
10 | HCC70 BREAST | 3.46 | 1.66 | 3.36 | 3.4 | 3 | 1.89 | 3.63 | 3.16 | 0.85 | 2.8 | 2.8 | 3.56 | 1.12
11 | HCC78 LUNG | 2.89 | 1.48 | 3.25 | 2.96 | 2.26 | 1.75 | 3.56 | 2.45 | 1.31 | 2.5 | 2.58 | 3.32 | 0.382
12 | HCC1395 BREAST | 3.97 | 2.74 | 2.7 | 3.19 | 3.78 | 3.36 | 2.6 | 3.25 | 3.37 | 3.23 | 3.01 | 3.51 | 
13 | HCC1954 BREAST | 2.94 | 1.3 | 1.55 | 1.44 | 3.57 | 1.2 | 3.05 | 2.69 | 1.63 | 3.11 | 3.07 | 3.08 | 1.75
14 | HCT15 LARGE INTESTINE | 3.48 | 2.64 | 2.63 | 2.37 | 1.59 | 1.86 | 3.52 | 3.09 | 2.81 | 3.46 | 2.63 | 3.61 | 1.15
15 | HOS BONE | 3.4 | 1.78 | 3.19 | 3.1 | 1.32 | 2.56 | 3.24 | 2.45 | 1.45 | 3.15 | 3.27 | 3.51 | 0.975
16 | HSSYII SYNOVIAL | 3.37 | 0.855 | 2.43 | 1.93 | 2.96 | 1.79 | 1.51 | 2.41 | 1.02 | 3.02 | 2.61 | 3.29 | 0.795
17 | JIMT1 BREAST | 3.16 | 1.24 | 3.05 | 2.96 | 1.69 | 1.88 | 3.41 | 3.23 | 2.28 | 3.01 | 3.11 | 3.29 | 1.44

Row | Test System | area under dose-response curve [1] | area under dose-response curve [2] | area under dose-response curve [3] | area under dose-response curve [4] | area under dose-response curve [5] | area under dose-response curve [6] | area under dose-response curve [7] | area under dose-response curve [8] | area under dose-response curve [9] | area under dose-response curve [10] | area under dose-response curve [11] | area under dose-response curve [12] | area under dose-response curve [13]
18 | KPD BONE | 3.57 | 2.29 | 3.19 | 3.08 | 3.55 | 1.44 | 3.14 | 2.77 | 1.06 | 2.3 | 3.25 | 3.43 | 
19 | MCF7 BREAST | 3.32 | 2.07 | 2.81 | 2.56 | 2.23 | 1.74 | 3.09 | 2.83 | 2.09 | 2.79 | 2.83 | 3.07 | 1.94
20 | MDAMB134 BREAST | 3.65 | 2.38 | 2.51 | 2.75 | 3.13 | 2.21 | 3.23 | 3.5 | 3.15 | 2.78 | 2.87 | 3.51 | 
21 | MDAMB231 BREAST | 3.4 | 1.77 | 3.25 | 3.4 | 3.12 | 2.01 | 3.37 | 3.08 | 1.79 | 3.09 | 3.01 | 3.28 | 2.29
22 | MDAMB361 BREAST | 2.9 | 2.09 | 2.92 | 2.37 | 2.76 | 2.12 | 3.18 | 3.08 | 2.83 | 2.39 | 3.27 | 2.88 | 2.69
23 | MDAMB436 BREAST | 3.36 | 1.99 | 2.86 | 2.56 | 2.65 | 2 | 3.36 | 2.79 | 2.55 | 3.01 | 2.96 | 3.02 | 1.85
24 | MDAMB468 BREAST | 3.23 | 1.33 | 3.1 | 3.17 | 2 | 1.93 | 3.6 | 3.72 | 0.925 | 3.04 | 3.21 | 3.61 | 1.09
25 | MFM223 BREAST | 4.35 | 1.45 | 2.87 | 2.38 | 4 | 2.56 | 1.63 | 3.2 | 1.83 | 2.57 | 3.55 | 3.93 | 1.99
26 | MHM BONE | 3.44 | 2.21 | 3.27 | 3.15 | 2.88 | 2.37 | 2.76 | 3.23 | 2.58 | 3.2 | 3.16 | 3.45 | 1.46
27 | NY BONE | 3.37 | 1.35 | 3.09 | 2.99 | 2.49 | 2.33 | 2.25 | 3.17 | 1.56 | 3.18 | 3.13 | 3.54 | 1.11
28 | OS25HAL BONE | 3.48 | 1.8 | 3.14 | 3.07 | 1.93 | 2.13 | 3.36 | 3.02 | 1.54 | 2.56 | 3.16 | 3.42 | 0.944
29 | PCI30 HEADNECK | 2.96 | 1.21 | 3.34 | 3.77 |  | 1.71 | 3.56 | 3.08 | 1.83 | 2.94 | 2.75 | 3.5 | 1.8
30 | SG43 HEADNECK | 2.23 | 1.93 | 3.93 | 3.53 | 2.93 | 3.01 | 2.62 | 2.8 |  | 2.3 | 2.18 | 3.25 | 2.1
31 | SNU475 LIVER | 3.21 | 2.17 | 2.43 | 2.27 | 3 | 1.26 | 3.14 | 3.16 | 1.98 | 3.02 | 2.41 | 3.31 | 1.81
32 | SYO1 SYNOVIAL | 3.34 | 1.3 | 2.17 | 1.69 | 1.91 | 1.81 | 2.4 | 2.14 | 0.731 | 2.79 | 2.4 | 3.26 | 0.79
33 | T47D BREAST | 3.73 | 1.99 | 3.2 | 3.18 | 2.28 | 2.24 | 3.76 | 2.95 | 2.87 | 2.61 | 3.24 | 3.56 | 2.72
34 | U2OS BONE | 3.46 | 2.14 | 3.23 | 2.94 | 2.4 | 2.39 | 2.79 | 2.88 | 1.35 | 3.14 | 3.26 | 3.56 | 1.49
